Converted amounts (≈) assume the structure as drawn.
Columns and labels:
[1] = tested on: cypris larvae of the barnacle Amphibalanus amphitrite; experiment: Antifouling (settlement inhibition) assay against barnacle cypris larvae; assay type: in vivo; details: 96 h; for EC50: Amphibalanus amphitrite; for EC50 / Antifouling activity EC50: cypris larvae, 24‐well plates, 25°C, dark, concentration reducing larval settlement to 50% of negative control; for Antifouling (settlement‐inhibitory) activity in words: up to 50 µg/mL
Method: First, the biological activities of xylemin (1) and its related compounds were assayed against the cypris larvae of the barnacle A. amphitrite. The larvae were treated using 24‐well polystyrene plates with 6 different concentrations of the compounds at 25°C in the dark for 96 h.
Evaluation of the biological activity and statistical analysis were conducted according to the previous work. Adult barnacles of A. amphitrite attached to stones were collected in Kobe, Japan, in 2023 and maintained in aquaria. Nauplii released from adults were cultured in filtered seawater (FSW) with penicillin/streptomycin (FUJIFILM Wako Pure Chemical Corp., Osaka, Japan) and fed Chaetoceros calcitrans at 25°C, under a 12 h light/12 h dark cycle. The larvae reached the cypris stage after 5–6 days. Cyprids were collected, rinsed with FSW, and stored in the dark at 5°C for 3–4 days until use. The effects of the compounds on barnacle cyprids were evaluated using 24‐well polystyrene plates (Corning Inc., Corning, NY, USA). Each compound was dissolved in MeOH, and the solution was diluted with the same solvent to concentrations of 0.01, 0.03, 0.1, 0.3, 1.0, and 5.0 µg/µL. Aliquots (10 µL) of the solutions were added to the wells of the polystyrene plates and air‐dried. Each well was charged with approximately ten cypris larvae and FSW (1.0 mL). The plates were incubated at 25°C in the dark for 96 h. […] Each concentration was tested in three wells, and the experiment was performed three times with different batches of larvae. The assay was conducted using CuSO4 (0.01, 0.03, 0.1, 0.3, 1.0, 3.0, and 10 µg) as a positive control. An assay without any compound was used as a negative control. Settlement inhibition was calculated based on negative control settlement. Antifouling activity (EC50) and toxicity (LC50) were calculated using probit analyses. EC50 indicates the concentration that reduces the larval settlement to 50% of the negative control. LC50 indicates the concentration that causes 50% mortality.

[2] = tested on: zooplankton Artenia larvae; parameters: method as in PMID 27919420; details: cited from earlier work
[3] = tested on: thermospermine synthase ACAULIS5 (ACL5); parameters: method as in ref 25 = [25]; 25 H. Takamura , H. Motose , T. Otsu , et al., “ Chemical Synthesis and Biological Effect on Xylem Formation of Xylemin and Its Analogues ,” European Journal of Organic Chemistry 2020 ( 2020 ): 2745 –; details: cited from earlier work
xylem formation = tested on: xylem formation; parameters: method as in PMID 26879262; details: cited from earlier work
barnacle A. amphitrite = tested on: barnacle A. amphitrite; parameters: method as in ref 30 = [30]; 30 J. A. Ponasik , S. Conova , D. Kinghorn , W. A. Kinney , D. Rittschof , and B. Ganem , “ Pseudoceratidine, a Marine Natural Product with Antifouling Activity: Synthetic and Biological Studies ,” Te; details: cited from earlier work

SMILES	EC50 [1] [µg/mL]	Antifouling (settlement‐inhibitory) activity in words [1]	also measured
NCCCCNCCCN [spermidine]	> 50	–	–
NCCCCNC1CCCCC1 [Compound 5, N‐(4‐aminobutyl)cyclohexylamine]	> 50	lacked antifouling activity	–
CN(C)C(=O)Nc1ccc(Cl)c(Cl)c1 [Diuron]	–	–	LC50 (50% lethal concentration) [2]: 30.6 mg/L (≈ 131 µM)
CCC(CC)NCCCCN [Compound 3, N‐(4‐aminobutyl)‐1‐ethylpropylamine]	> 50	–	–
CCCNCCCCN [Compound 1, N‐(4‐aminobutyl)propylamine]	4.25 (≈ 32.6 µM)	–	Expression of ACL5 [3]: promoted the expression; Xylem formation / differentiation (xylem formation): enhanced xylem formation
CCCNCCCCNC(=O)OC(C)(C)C [Compound 2]	6.11 (≈ 26.5 µM)	–	–
NCCCCNC1CCCC1 [Compound 4, N‐(4‐aminobutyl)cyclopentylamine]	> 50	no inhibitory activity	Xylem formation / differentiation (xylem formation): significant activity in promoting xylem differentiation
NCCCNCCCCNCCCN [spermine]	> 50	–	–
NCCCCN [Compound 7, putrescine, reference compound]	> 50	non‐antifouling activity	–
NCCCNCCCCNCCCN [Compound 9, spermine, reference compound]	–	–	Antifouling activity EC50 [1]: >50 µg/mL
NCCCCNC1CCCCCC1 [Compound 6, N‐(4‐aminobutyl)cycloheptylamine]	> 50	lacked antifouling activity	–
NCCCCNCCCNCCCN [thermospermine]	> 50	–	–
NCCCCNCCCNCCCN [Compound 10, thermospermine, reference compound]	–	–	Antifouling activity EC50 [1]: >50 µg/mL
NCCCCNC1CCCC1 [N‐(4‐aminobutyl)cyclopentylamine]	–	–	Expression of ACL5 [3]: promoted the expression; Xylem formation / differentiation (xylem formation): enhanced xylem formation
NCCCCNCCCN [Compound 8, spermidine, reference compound]	–	did not exhibit antifouling activity	Antifouling activity EC50 [1]: >50 µg/mL
O=C(O)c1cc(Br)c(Br)[nH]1 [4,5‐dibromopyrrole‐2‐carboxylic acid]	–	–	Antifouling activity EC50 (barnacle A. amphitrite): 15 µg/mL
